# System: NOMO1
# Experiment: cell viability relative to DMSO control; higher = less cytotoxic
# Details: 48 h
# How it was run: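 NOMO1 or SEM (500 cells/well) or P12-Ichikawa (1000 cells/well) leukemia cells were adapted for at least four passages in each medium. They were seeded in 1536-well plates (5 μl) and pin-dosed with library compounds in DMSO over an 11-point threefold series, 47 μM to 0.79 nM. CellTiter-Glo One luminescence was read after 48 h at 37°C. Viability is the per-plate percentage relative to DMSO wells, with cell-free wells as background.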
# [1] = HPLM + 10% dialyzed FBS, 0.000781 µM
# [2] = HPLM + 10% dialyzed FBS, 0.00234 µM
# [3] = HPLM + 10% dialyzed FBS, 0.00702 µM
# [4] = HPLM + 10% dialyzed FBS, 0.0211 µM
# [5] = HPLM + 10% dialyzed FBS, 0.0632 µM
# [6] = HPLM + 10% dialyzed FBS, 0.19 µM
# [7] = HPLM + 10% dialyzed FBS, 0.569 µM
# [8] = HPLM + 10% dialyzed FBS, 1.71 µM
# [9] = HPLM + 10% dialyzed FBS, 5.12 µM
# [10] = HPLM + 10% dialyzed FBS, 15.4 µM
# [11] = HPLM + 10% dialyzed FBS, 46.1 µM
# [12] = RPMI 5 mM glucose + 10% FBS, 0.000781 µM
# [13] = RPMI 5 mM glucose + 10% FBS, 0.00234 µM
# [14] = RPMI 5 mM glucose + 10% FBS, 0.00702 µM
# [15] = RPMI 5 mM glucose + 10% FBS, 0.0211 µM
# [16] = RPMI 5 mM glucose + 10% FBS, 0.0632 µM
# [17] = RPMI 5 mM glucose + 10% FBS, 0.19 µM
# [18] = RPMI 5 mM glucose + 10% FBS, 0.569 µM
# [19] = RPMI 5 mM glucose + 10% FBS, 1.71 µM
# [20] = RPMI 5 mM glucose + 10% FBS, 5.12 µM
# [21] = RPMI 5 mM glucose + 10% FBS, 15.4 µM
# [22] = RPMI 5 mM glucose + 10% FBS, 46.1 µM
# [23] = RPMI 5 mM glucose + 10% dialyzed FBS, 0.000781 µM
# [24] = RPMI 5 mM glucose + 10% dialyzed FBS, 0.00234 µM
# [25] = RPMI 5 mM glucose + 10% dialyzed FBS, 0.00702 µM
# [26] = RPMI 5 mM glucose + 10% dialyzed FBS, 0.0211 µM
# [27] = RPMI 5 mM glucose + 10% dialyzed FBS, 0.0632 µM
# [28] = RPMI 5 mM glucose + 10% dialyzed FBS, 0.19 µM
# [29] = RPMI 5 mM glucose + 10% dialyzed FBS, 0.569 µM
# [30] = RPMI 5 mM glucose + 10% dialyzed FBS, 1.71 µM
# [31] = RPMI 5 mM glucose + 10% dialyzed FBS, 5.12 µM
# [32] = RPMI 5 mM glucose + 10% dialyzed FBS, 15.4 µM
# [33] = RPMI 5 mM glucose + 10% dialyzed FBS, 46.1 µM
SMILES,cell viability [1] [%],cell viability [2] [%],cell viability [3] [%],cell viability [4] [%],cell viability [5] [%],cell viability [6] [%],cell viability [7] [%],cell viability [8] [%],cell viability [9] [%],cell viability [10] [%],cell viability [11] [%],cell viability [12] [%],cell viability [13] [%],cell viability [14] [%],cell viability [15] [%],cell viability [16] [%],cell viability [17] [%],cell viability [18] [%],cell viability [19] [%],cell viability [20] [%],cell viability [21] [%],cell viability [22] [%],cell viability [23] [%],cell viability [24] [%],cell viability [25] [%],cell viability [26] [%],cell viability [27] [%],cell viability [28] [%],cell viability [29] [%],cell viability [30] [%],cell viability [31] [%],cell viability [32] [%],cell viability [33] [%]
Cc1ccc(F)c(NC(=O)Nc2ccc(-c3cccc4[nH]nc(N)c34)cc2)c1,91.4,111,118,125,115,111,110,110,117,93.8,86.6,99.6,125,121,108,123,118,113,115,118,114,105,106,112,108,123,116,105,120,117,104,111,87.8
O=P(O)(O)C(O)(Cc1cccnc1)P(=O)(O)[O][Na] (stereo not drawn),71.5,102,98.3,33,107,97.2,119,116,116,102,106,85.3,93.6,90.8,22.8,90.7,85,93,84.7,83.7,85.9,86.6,76.4,80.2,82.8,25.2,88.2,93.5,103,92.6,97.6,93.6,106
CC1(C)O[C@H]2CC(=O)OC[C@]23[C@H]2CC[C@@]4(C)[C@H](c5ccoc5)OC(=O)[C@H]5O[C@]54[C@]2(C)C(=O)C[C@@H]13,114,91.3,98.8,84.5,99.4,110,99.2,115,114,103,87.7,96.8,89.8,93.7,96.1,101,105,98.9,108,98.4,103,97.8,87.2,95.7,83,101,102,98.5,96.7,110,99.1,109,98
C[C@@]12OC(=O)[C@@]1(NC(=O)[C@@H]2CCCl)[C@@H](O)[C@H]\3CCC\C=C3,109,114,104,104,97.9,51.4,9.1,6.95,4.84,2.62,1.53,86.2,94.4,104,103,100,66.2,11,6.39,7.27,3.01,1.15,90.2,110,106,96.8,102,62.7,11,5.88,4.34,2.85,1.4
O=C(C1CCCCC1)N1CC(=O)N2CCc3ccccc3C2C1 (stereo not drawn),106,147,125,125,126,130,140,110,108,107,114,–,–,–,–,–,–,–,–,–,–,–,–,–,–,–,–,–,–,–,–,–,–
CCCn1c(=O)c2[nH]c(-c3cnn(Cc4cccc(C(F)(F)F)c4)c3)nc2n(CC)c1=O,111,113,102,125,115,116,96,82.4,64.1,56.4,43.5,92.7,93.1,101,103,103,105,102,98.8,82.7,69.8,61.5,98.6,104,92.1,81.6,105,103,85.3,80.6,76.9,65.2,44.7
CCCCOc1ccc(C(=O)Nc2ccc(F)cc2F)cc1,85.8,90.8,91.4,96.3,89.2,85.6,103,104,92.2,97.8,51,81.7,87.5,81.5,89.5,86.3,94.7,88.1,93.8,92.9,88.3,83,79.5,89.2,76.8,97.5,89.6,95.4,91.9,96.5,97.8,88.5,92
NC12CC3CC(CC(C3)C1)C2,108,104,102,103,138,121,111,106,101,96.4,88.5,102,102,102,101,97,108,98.2,94.5,99.1,98.5,104,95.3,95.8,108,97.8,93.1,105,103,96,88.3,97,81
CN(C(=O)c1ccc(F)cc1C(F)(F)F)C1CCN(c2nnc(-c3ccnn3C)c3ccccc23)CC1,61.1,79,87.1,83.2,102,97.8,83.4,95.2,85.2,88.8,77.9,66,71.6,69.4,83.3,82.3,84.8,11.9,82.8,79.6,76.6,75,76,85.4,79.9,86.8,77.6,86.3,77.1,80.7,82.2,78,41.9
CC1(C)OC/2=C(\[C@H](NCC3=CC=CC=C3)[C@@H]1O)C(=O)C4=CC=CC=C4C2=O,112,36.5,117,101,104,96.1,108,82.5,37.6,22.4,7.72,89.7,99.6,89.2,95.5,86.7,93.8,95,98.2,37.4,17.5,5.95,86.7,90.2,88.1,89.3,98.3,92.6,97.6,86.9,60.2,26.7,5.24
CNC(=O)c1c(F)cccc1Nc1nc(Nc2cc3c(cc2OC)CCN3C(=O)CN(C)C)nc2[nH]ccc12,89.3,118,99.9,122,111,88.7,87.2,76.5,58.8,62,6.14,110,118,128,106,112,117,115,113,116,117,27.7,107,111,105,126,117,112,108,103,99.2,102,23.6
CCCCc1oc2ccc(NS(C)(=O)=O)cc2c1C(=O)c1ccc(OCCCN(CCCC)CCCC)cc1,109,107,100,105,96.7,113,114,64.7,34,27.5,14.4,86.9,98,103,98.3,97.1,93.4,103,28.8,17.8,16.4,9.17,83.2,95.5,102,102,93.7,106,103,66,28.3,20.6,12.5
CN(C)c1ccc(C(=O)NCCCCCCC(=O)NO)cc1,106,103,104,94.9,106,83.5,112,89,7.42,3.13,3.88,91.1,90.6,103,92.3,95.8,99.8,91.4,92,6.22,2.81,2.37,102,103,124,106,112,105,106,89,7.05,3.1,3.05
O=C(NC1CC1)c1cccc(-c2ccc3c(NC(=O)C4CC4)n[nH]c3c2)c1,101,109,117,121,119,109,119,118,122,87.6,38.3,129,113,122,139,125,115,111,112,123,98.7,20.2,118,124,123,130,124,129,110,122,132,99.7,35.3
O=C1c2cccc(O)c2C(=O)c2c(O)cc(CO)cc21,89.5,109,87.5,89.8,98.5,81.8,82.5,86.5,81.9,75.8,76.8,96.8,92.5,92.1,91.9,87.1,88.3,90.6,92.8,81.9,85.5,78.9,97.8,106,104,95.4,100,93.1,102,79.7,85.2,94.5,94.3

# Reference: the supplement of paper PMC11451515
